Experimental data from US11673901B2, “Polycyclic compounds as allosteric SHP2 inhibitors” (Revolution Medicines, Inc., priority 2017, dated 2023).

Target: SHP2 (Homo sapiens (Human), UniProt Q06124)
Assay: SHP2 allosteric inhibition assay (DiFMUP prompt fluorescence)
Format: biochemical
Conditions: 0.2 nM SHP2 activated with 0.5 μM Activating Peptide 1 or 2; substrate DiFMUP; Table 2, class symbols
From the text: Without wishing to be bound by theory, SHP2 is allosterically activated through binding of bis-tyrosyl-phosphorylated peptides to its Src Homology 2 (SH2) domains. The latter activation step leads to the release of the auto-inhibitory interface of SHP2, which in turn renders the SHP2 protein tyrosine phosphatase (PTP) active and available for substrate recognition and reaction catalysis. The catalytic activity of SHP2 was monitored using the surrogate substrate DiFMUP in a prompt fluorescence assay format.
The phosphatase reactions were performed at room temperature in 96-well black polystyrene plate, flat bottom, non-binding surface (Corning, Cat #3650) using a final reaction volume of 100 μL and the following assay buffer conditions: 50 mM HEPES, pH 7.2, 100 mM NaCl, 0.5 mM EDTA, 0.05% P-20, 1 mM DTT.
The inhibition of SHP2 by compounds of the invention (concentrations varying from 0.00005-10 μM) was monitored using an assay in which 0.2 nM of SHP2 was incubated with 0.5 μM of Activating Peptide 1 (sequence: H2N-LN(pY)IDLDLV(dPEG8)LST(pY)ASINFQK-amide) or Activating Peptide 2 (sequence: H2N-LN(pY)AQLWHA(dPEG8)LTI(pY)ATIRRF-amide). After 30-60-minutes incubation at 25° C., the surrogate substrate DiFMUP (Invitrogen, Cat #D6567) was added to the reaction and activity was determined by a kinetic read using a microplate reader (Envision, Perkin-Elmer or Spectramax M5, Molecular Devices). The excitation and emission wavelengths were 340 nm and 450 nm, respectively. Initial rates were determined from a linear fit of the data, and the inhibitor dose response curves were analyzed using normalized IC50 regression curve fitting with control based normalization.

Chain of SHP2 (Q06124 whole entry): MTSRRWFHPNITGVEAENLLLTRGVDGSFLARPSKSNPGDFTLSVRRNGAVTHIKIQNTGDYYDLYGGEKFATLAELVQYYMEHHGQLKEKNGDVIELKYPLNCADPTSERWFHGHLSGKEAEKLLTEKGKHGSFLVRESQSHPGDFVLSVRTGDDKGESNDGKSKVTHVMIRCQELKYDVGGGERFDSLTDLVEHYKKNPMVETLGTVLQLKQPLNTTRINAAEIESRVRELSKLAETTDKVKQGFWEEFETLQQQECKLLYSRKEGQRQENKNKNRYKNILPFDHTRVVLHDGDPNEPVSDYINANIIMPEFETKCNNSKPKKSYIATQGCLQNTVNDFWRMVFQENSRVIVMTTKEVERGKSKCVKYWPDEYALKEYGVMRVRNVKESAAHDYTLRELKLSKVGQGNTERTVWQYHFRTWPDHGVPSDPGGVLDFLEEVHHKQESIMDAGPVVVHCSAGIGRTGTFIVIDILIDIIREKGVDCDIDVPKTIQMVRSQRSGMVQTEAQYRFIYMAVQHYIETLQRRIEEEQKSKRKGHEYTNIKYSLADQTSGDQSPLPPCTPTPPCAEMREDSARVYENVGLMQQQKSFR

Structure (SMILES)	IC50 [nM]
Nc1nccc(Sc2cnc(N3CC[C@H](N)C3)n3ccnc23)c1Cl [Compound 21, 4-({5-[(3S)-3-aminopyrrolidin-1-yl]imidazo[1,2-c]pyrimidin-8-yl}sulfanyl)-3-chloropyridin-2-amine]	> 500
Cc1nc(N2CCC3(CC2)CO[C@@H](C)[C@H]3N)n2ccnc2c1-c1cccc2c(F)c[nH]c12 [Compound 55, (3S,4S)-8-[8-(3-fluoro-1H-indol-7-yl)-7-methylimidazo[1,2-c]pyrimidin-5-yl]-3-methyl-2-oxa-8-azaspiro[4.5]decan-4-amine]	≤ 50
C[C@@H]1OCC2(CCN(c3ncc(-c4ccnc(N)c4Cl)c4nccn34)CC2)[C@@H]1N [Compound 60, (3S,4S)-8-[8-(2-amino-3-chloropyridin-4-yl)imidazo[1,2-c]pyrimidin-5-yl]-3-methyl-2-oxa-8-azaspiro[4.5]decan-4-amine]	> 500
C[C@@H]1OCC2(CCN(c3ncc(Sc4ccnc(N5CC(S(C)(=O)=O)C5)c4Cl)c4nccn34)CC2)[C@@H]1N [Compound 12, (3S,4S)-8-(8-{[3-chloro-2-(3-methanesulfonylazetidin-1-yl)pyridin-4-yl]sulfanyl}imidazo[1,2-c]pyrimidin-5-yl)-3-methyl-2-oxa-8-azaspiro[4.5]decan-4-amine]	≤ 50
Nc1nccc(Sc2cnc(N3CCNCC3)n3ccnc23)c1Cl [Compound 27, 3-chloro-4-{[5-(piperazin-1-yl)imidazo[1,2-c]pyrimidin-8-yl]sulfanyl}pyridin-2-amine]	> 500
Cc1nc(N2CCC3(CC2)CO[C@@H](C)[C@H]3N)n2ccnc2c1-c1ccnc2cc[nH]c12 [Compound 53, (3S,4S)-3-methyl-8-(7-methyl-8-{1H-pyrrolo[3,2-b]pyridin-7-yl}imidazo[1,2-c]pyrimidin-5-yl)-2-oxa-8-azaspiro[4.5]decan-4-amine]	≤ 50
Cc1nc(N2CCC3(CC2)CO[C@@H](C)[C@H]3N)n2ccnc2c1-c1cc2[nH]ncc2cc1Cl [Compound 38, (3S,4S)-8-[8-(5-chloro-2H-indazol-6-yl)-7-methylimidazo[1,2-c]pyrimidin-5-yl]-3-methyl-2-oxa-8-azaspiro[4.5]decan-4-amine]	≤ 50
Cc1nc(N2CCC3(CC2)CO[C@@H](C)[C@H]3N)n2ccnc2c1-c1ccc2c(c1Cl)OCCC2 [Compound 43, (3S,4S)-8-[8-(8-chloro-3,4-dihydro-2H-1-benzopyran-7-yl)-7-methylimidazo[1,2-c]pyrimidin-5-yl]-3-methyl-2-oxa-8-azaspiro[4.5]decan-4-amine]	≤ 50
Nc1nccc(Sc2cnc(N3CC[C@H](O)C3)n3ccnc23)c1Cl [Compound 76]	> 500
Cc1nc(N2CCC3(CC2)CO[C@@H](C)[C@H]3N)n2ccnc2c1-c1ccc2nccnc2c1Cl [Compound 41, (3S,4S)-8-[8-(5-chloroquinoxalin-6-yl)-7-methylimidazo[1,2-c]pyrimidin-5-yl]-3-methyl-2-oxa-8-azaspiro[4.5]decan-4-amine]	≤ 50
Cc1nc(N2CCC3(CC2)CO[C@@H](C)[C@H]3N)n2ccnc2c1-c1cc(Cl)c2cn[nH]c2c1 [Compound 37, (3S,4S)-8-[8-(4-chloro-2H-indazol-6-yl)-7-methylimidazo[1,2-c]pyrimidin-5-yl]-3-methyl-2-oxa-8-azaspiro[4.5]decan-4-amine]	≤ 50
CNC(=O)O[C@H]1C[C@@H](N)C2(CCN(c3nc(C)c(-c4cccc(Cl)c4Cl)c4nccn34)CC2)C1 [Compound 63, (2R,4R)-4-amino-8-[8-(2,3-dichlorophenyl)-7-methylimidazo[1,2-c]pyrimidin-5-yl]-8-azaspiro[4.5]decan-2-yl N-methylcarbamate]	≤ 50
NCCNc1ncc(Sc2ccnc(N)c2Cl)c2nccn12 [Compound 23, N1-{8-[(2-amino-3-chloropyridin-4-yl)sulfanyl]imidazo[1,2-c]pyrimidin-5-yl}ethane-1,2-diamine]	> 500
CC1(O)CCN(c2ncc(Sc3ccnc(N)c3Cl)c3nccn23)CC1 [Compound 79]	> 500
Cc1nc(N2CCC3(CC2)CO[C@@H](C)[C@H]3N)n2ccnc2c1-c1cccc2c(Cl)c[nH]c12 [Compound 50, (3S,4S)-8-[8-(3-chloro-1H-indol-7-yl)-7-methylimidazo[1,2-c]pyrimidin-5-yl]-3-methyl-2-oxa-8-azaspiro[4.5]decan-4-amine]	≤ 50
Nc1nccc(Sc2cnc(N3CCC(c4ncc[nH]4)CC3)n3ccnc23)c1Cl [Compound 78]	> 500
Cc1nc(N2CCC3(CC2)CO[C@@H](C)[C@H]3N)n2ccnc2c1-c1cc(Cl)cc2cc[nH]c12 [Compound 52, (3S,4S)-8-[8-(5-chloro-1H-indol-7-yl)-7-methylimidazo[1,2-c]pyrimidin-5-yl]-3-methyl-2-oxa-8-azaspiro[4.5]decan-4-amine]	≤ 50
C[C@@H]1OCC2(CCN(c3ncc(Sc4ccnc(N)c4Cl)c4ncnn34)CC2)[C@@H]1N [Compound 4, (3S,4S)-8-{8-[(2-amino-3-chloropyridin-4-yl)sulfanyl]-[1,2,4]triazolo[1,5-c]pyrimidin-5-yl}-3-methyl-2-oxa-8-azaspiro[4.5]decan-4-amine]	≤ 50
Cc1nc(N2CCC3(CC2)CO[C@@H](C)[C@H]3N)n2ccnc2c1-c1cccc2nc[nH]c12 [Compound 32, (3S,4S)-8-[8-(1H-1,3-benzodiazol-4-yl)-7-methylimidazo[1,2-c]pyrimidin-5-yl]-3-methyl-2-oxa-8-azaspiro[4.5]decan-4-amine]	≤ 50
COc1ccc(-c2c(C)nc(N3CCC4(CC3)CO[C@@H](C)[C@H]4N)n3ccnc23)c(Cl)c1C#N [Compound 31, 3-{5-[(3S,4S)-4-amino-3-methyl-2-oxa-8-azaspiro[4.5]decan-8-yl]-7-methylimidazo[1,2-c]pyrimidin-8-yl}-2-chloro-6-methoxybenzonitrile]	≤ 50
Nc1nccc(Sc2cnc(N[C@H]3CC[C@@H](O)C3)n3ccnc23)c1Cl [Compound 80]	> 500
Cc1nc(N2CCC3(CC2)CO[C@@H](C)[C@H]3N)n2ccnc2c1Sc1ccnc(N)c1Cl [Compound 29, (3S,4S)-8-{8-[(2-amino-3-chloropyridin-4-yl)sulfanyl]-7-methylimidazo[1,2-c]pyrimidin-5-yl}-3-methyl-2-oxa-8-azaspiro[4.5]decan-4-amine]	≤ 50
NC[C@H]1CCN(c2ncc(Sc3ccnc(N)c3Cl)c3nccn23)C1 [Compound 24, 4-({5-[(3R)-3-(aminomethyl)pyrrolidin-1-yl]imidazo[1,2-c]pyrimidin-8-yl}sulfanyl)-3-chloropyridin-2-amine]	50 to 500
Nc1nccc(Sc2cnc(N3CC[C@@H](N)C3)n3ccnc23)c1Cl [Compound 28, 4-({5-[(3R)-3-aminopyrrolidin-1-yl]imidazo[1,2-c]pyrimidin-8-yl}sulfanyl)-3-chloropyridin-2-amine]	> 500
Cc1cc(Sc2cnc(N3CCC4(CC3)CO[C@@H](C)[C@H]4N)n3ccnc23)cc(N)n1 [Compound 18, (3S,4S)-8-{8-[(2-amino-6-methylpyridin-4-yl)sulfanyl]imidazo[1,2-c]pyrimidin-5-yl}-3-methyl-2-oxa-8-azaspiro[4.5]decan-4-amine]	50 to 500
CC1(N)CCN(c2ncc(Sc3ccnc(N)c3Cl)c3nncn23)CC1 [Compound 7, 4-{[5-(4-amino-4-methylpiperidin-1-yl)-[1,2,4]triazolo[4,3-c]pyrimidin-8-yl]sulfanyl}-3-chloropyridin-2-amine]	50 to 500
